Experimental data from article PMC5011932, “Comparative pharmacokinetics and pharmacodynamics of intravenous artelinate versus artesunate in uncomplicated Plasmodium coatneyi-infected rhesus monkey model” (Malaria Journal, 2016).
Values joined by “and” are separate entries in the source; they are usually repeats but may differ in a detail not shown here. Identical values can stand only once. Like-named read-outs stand apart in the source and are kept apart here.

Legend:
[1] = rhesus monkey, in vivo
Description: (§1) These doses were chosen as the minimal effective doses (from previous model development and validation studies, unpublished data) and blood was collected for pharmacokinetic analysis. After a week wash-out and recovery period, P. coatneyi (1 mL of >50,000 parasitized RBCs per microlitre or 5 × 10^6 RBC with a 1 % parasitaemia) were inoculated from a donor monkey into all the monkeys. The treatment was initiated at day 6 after inoculation at a parasitaemia ≥3 % or >200,000 parasites μL^−1 when the cohort of animals was minimally symptomatic. Drugs were given for 3 days with a loading dose initially followed by ½ of the first dose on the 2nd and 3rd days.
(§2) Blood was collected for pharmacokinetic/pharmacodynamics (PK/PD) analysis after the first dose only due to rapid clearance of artemisinin derivatives. Heparinized blood was collected at 0, 5, 20, 40 min, 1, 3, and 6 h post-dose and plasma samples were separated within 2 h by centrifugation (1500g, 10 min). Aliquots of samples were made for simultaneous measurement by HPLC [16] and bioassay [14], and stored at −80 °C until analysis. All glassware was silanized before use with a 0.5 % aqueous solution (v/v) of Pierce Aquasil (Rockford, IL, USA) according to the manufacturer’s recommended procedure. Solid-phase extraction was performed on C-18 elution cartridge (3.0 ml, J.T. Baker Co.) using a VAC ELUTE SPS24 sample processing station (Analytichem International, Harbour City, CA, USA). The cartridge was preconditioned by sequential washing with 2.5 ml acetonitrile, 2.5 ml methanol and 2.5 ml water. One ml of distilled water was added to the cartridge before adding plasma sample (0.5 ml). Then, the cartridge was washed with 2.5 ml distilled water, 2.5 ml of 0.05 % H3PO4 (pH 4.5) and 2.5 ml of 20 % acetonitrile and completely dried by closing the vacuum for 15 min. The analytes were collected by eluting with 0.5 ml methanol three times and then with 0.5 ml 90:10 n-butyl chloride: ethyl acetate twice. The organic phases were pooled. The combined organic phases were then evaporated to dryness under a stream of nitrogen at room temperature. Extraction residues were reconstituted with 50:50 ethanol: water (0.3 ml), at least 16 h before injection. The injection volume was 100 µl for all samples.
(§3) The plasma concentration of parent drugs, AL and AS, and their primary metabolites, DHA and 2-hydroxyartelinate (OHAL) respectively, were measured by HPLC with electrochemical detection in reductive mode (HPLC-ECD) [16], which was the only method for artemisinin compounds then (Additional files 1 and 2).
(§4) HPLC with reductive electrochemical detection was performed using a model BAS 200B liquid chromatography (Bioanalytical Systems, Inc., West Lafayette, Indiana, USA). A Nova-Pak® C18 (3.9 × 150 mm, Waters Corporation, Milford, MA, USA) was used with 40 % acetonitrile in sodium acetate buffer (pH 3.6) as mobile phase. Detection was performed using a thin dual-layer glassy carbon electrode run in parallel mode at a potential of −1.0 V versus Ag/AgCl. The system was operated at the following temperatures: mobile phase 35 °C, column and detector oven 30 °C, cell 31 °C with the flow rate of 1.5 mL min^−1. Artemisinin (ART) was used as an internal standard. Samples were injected via Gilson model 231 XL sampling injector equipped with a 100 µL loop, a Gilson model 401 dilutor/pipettor, a sampler controller keypad (Gilson Medical Electronics, Middleton, WI, USA), and a Valco electrically actuated switching valve (Valco Instrument Co. Inc) was used. This system automatically deoxygenated and injected sample, which permits the high sample throughput associated with automated injection. Data were acquired and analysed using a Millennium^32 Chromatography Manager (Waters Corporation, Milford, MA, USA).

[2] = Plasma pharmacokinetics by HPLC-ECD after IV dose in rhesus monkeys; conditions: for concentration at 0.08 h / concentration at 0.33 h / concentration at 0.67 h / concentration at 1 h / concentration at 3 h / concentration at 6 h: intravenous, 8 mg kg^-1, Plasma concentration; for AUC(0-t): AUC 0-20, mean; for half-life: t 1/2, z
Description: as §1, §2, §3, §4

P. falciparum clone (W2) = test: Ex vivo Plasmodium falciparum-based bioassay (BA) of rhesus plasma, effect kinetics (ePD) as DHA equivalents; type: cell-based; conditions: for Bioactivity %AUC20 / Bioactivity Cl: mean
Description: Blood was collected for pharmacokinetic/pharmacodynamics (PK/PD) analysis after the first dose only due to rapid clearance of artemisinin derivatives. Heparinized blood was collected at 0, 5, 20, 40 min, 1, 3, and 6 h post-dose and plasma samples were separated within 2 h by centrifugation (1500g, 10 min). Aliquots of samples were made for simultaneous measurement by HPLC [16] and bioassay [14], and stored at −80 °C until analysis.
The plasma anti-malarial activities of the artemisinin derivatives were measured using a previously published method [14]. […] After centrifugation, the supernatant (100 µL) was transferred to a 96-well flat bottom plate. Twofold serial dilutions were then made using heat inactivated pooled control serum (human:rhesus = 1:1). A suspension of malaria (W2 clone) infected erythrocytes was added to each well. The microtitre plate was placed into a gas-tight plexiglass chamber, flushed with a gas mixture of 90 % CO2, 5 % O2, and 5 % N2, and placed into an incubator (37 °C). Following 24 h incubation, the plate was removed from the chamber and pulsed with [^3H]-hypoxanthine solution to each well and incubated for another 18–20 h before harvesting. The incorporation of [^3H]-hypoxanthine by the parasites in each well was determined by counting in a scintillation counter.
A dose–response curve for each plasma sample was constructed by plotting [^3H]-hypoxanthine uptake on the Y-axis against the corresponding dilution factor on the X-axis after logarithmic transformation. The dilution factor value that inhibits parasite growth by 50 % (DF50) of each plasma sample was determined.

Plasmodium coatneyi = test: In vivo pharmacodynamics (parasite clearance) in uncomplicated P. coatneyi-infected splenectomized rhesus monkey model
Description: Twenty-two adult colony-born, Indian-origin rhesus macaques (Macaca mulatta) naïve monkeys were splenectomized and recovered well more than 1 month prior to entering the study. […] Twenty-two animals were randomized to two experiments of 11 monkeys. […] The control monkeys received intramuscular quinine treatment and the experimental animals received intravenous artemisinin candidates.
Based on our previous model validation, blood smears were performed to detect malaria parasites starting prior to inoculation on day 0 and continued daily (0700–0800 h). The monkeys were physically restrained in the squeeze cage restraint apparatus and approximately 0.1–0.2 ml whole blood was collected from each monkey by lancet puncture of the lateral auricular vein. Thick and thin smears were made on the same microscope glass slide and subsequently fixed in methanol and stained with Giemsa. When the smears were positive, white blood cell count (WBC) and/or red blood cell count (RBC) were also performed using automated haematology analyzer Sysmex K800 to calculate parasite density. Haematocrits were checked as needed. At study days 6–12, additional blood samples were obtained from all animals in the afternoon (1500–1600 h) to monitor parasitaemia levels. Daily blood smears were continued until two consecutive days with negative smears. Then the smear monitoring schedule was reduced to two times weekly for 2 weeks and then weekly for 6 weeks after completion of the last treatment.
Blood smear staining and parasitaemia determination took about 2 h. […] The control monkey received quinine treatment and the ten experimental animals received intravenous artemisinin derivative candidate.
After a week wash-out and recovery period, P. coatneyi (1 mL of >50,000 parasitized RBCs per microlitre or 5 × 10^6 RBC with a 1 % parasitaemia) were inoculated from a donor monkey into all the monkeys. The treatment was initiated at day 6 after inoculation at a parasitaemia ≥3 % or >200,000 parasites μL^−1 when the cohort of animals was minimally symptomatic. Drugs were given for 3 days with a loading dose initially followed by ½ of the first dose on the 2nd and 3rd days.
Blood smear were collected once daily in the morning. Once positive parasitaemia was observed and reached 2000 parasites μL^−1, blood smears were collected twice, in the morning and afternoon. Blood for slides preparation were collected from ear for thick and thin smear preparation. Blood films on glass slides were air dried, fixed with 100 % methanol, stained with Giemsa, and read under ×100 magnification oil emersion for parasite determination.
First, a thick smear was performed for parasite detection by reading the slides at least 50 fields under ×100 magnification oil emersion.

[3] = Deaths and tolerability in P. coatneyi-infected rhesus monkeys; type: in vivo, rhesus macaques (Macaca mulatta); conditions: for Deaths: infected rhesus, IV AL 11.8 mg kg^−1
[4] = set-up: method as in PMID 16860356, PMID 16126619; conditions: rats; cited from earlier work
[5] = DHA equivalents, infected rhesus

2-hydroxyartelinate [OHAL]
t1/2, metabolite (M) [1]: 42.2 min

C[C@H]1[C@@H](O)O[C@@H]2O[C@@]3(C)CC[C@H]4[C@H](C)CC[C@@H]1[C@@]24OO3 [DHA, dihydroartemisinin]
Time of highest level post-dose ([2]; after IV AS): 5 min | %AUC20 ([2]; mean, healthy rhesus): 23.8% | %AUC20 ([2]; mean, infected rhesus): 27.0% | concentration at 0.08 h ([2]; rhesus monkey, plasma, mean, 0.08 h, healthy rhesus, after IV AL 11.8 or AS 8.0 mg/kg): 7.89 µM | concentration at 0.08 h ([2]; rhesus monkey, plasma, mean, 0.08 h, infected rhesus, after IV AL 11.8 or AS 8.0 mg/kg): 6.74 µM | concentration at 0.33 h ([2]; rhesus monkey, plasma, mean, 0.33 h, healthy rhesus): 6.75 µM | concentration at 0.33 h ([2]; rhesus monkey, plasma, mean, 0.33 h, infected rhesus): 5.92 µM | concentration at 0.67 h ([2]; rhesus monkey, plasma, mean, 0.67 h, healthy rhesus): 4.51 µM | concentration at 0.67 h ([2]; rhesus monkey, plasma, mean, 0.67 h, infected rhesus): 4.21 µM | concentration at 1 h ([2]; rhesus monkey, plasma, mean, 1.0 h, healthy rhesus): 3.52 µM | concentration at 1 h ([2]; rhesus monkey, plasma, mean, 1.0 h, infected rhesus): 2.68 µM | concentration at 3 h ([2]; rhesus monkey, plasma, mean, 3.0 h, healthy rhesus): 0.31 µM | concentration at 3 h ([2]; rhesus monkey, plasma, mean, 3.0 h, infected rhesus): 0.16 µM | concentration at 6 h ([2]; rhesus monkey, plasma, mean, 6.0 h, healthy rhesus): 0 nM | concentration at 6 h ([2]; rhesus monkey, plasma, mean, 6.0 h, infected rhesus): 0 nM | AUC(0-t) ([2]; rhesus monkey, plasma, iv, 8 mg/kg, healthy rhesus): 2.17 µM·h | AUC(0-t) ([2]; rhesus monkey, plasma, iv, 8 mg/kg, infected rhesus): 1.87 µM·h | AUC(0-inf) ([2]; rhesus monkey, plasma, iv, 8 mg/kg, AUC(0-inf), mean, healthy rhesus): 9.28 µM·h | AUC(0-inf) ([2]; rhesus monkey, plasma, iv, 8 mg/kg, AUC(0-inf), mean, infected rhesus): 7.45 µM·h | Cmax ([2]; rhesus monkey, plasma, iv, 8 mg/kg, Cmax, mean, P. coatneyi infected rhesus, IV AL/Lys 11.8 or AS/Na 8 mg/kg, analyte = label): 6.85 µM | Cmax ([2]; rhesus monkey, plasma, iv, 8 mg/kg, Cmax, mean, healthy rhesus, IV AL/Lys 11.8 or AS/Na 8 mg/kg, analyte = label): 8.1 µM | half-life ([2]; rhesus monkey, plasma, iv, 8 mg/kg, mean, healthy rhesus): 35.9 min | half-life ([2]; rhesus monkey, plasma, iv, 8 mg/kg, mean, infected rhesus): 30 min

CC1CCC2C(C)C(OCc3ccc(C(=O)O)cc3)OC3OC4(C)CCC1C32OO4.CC1CCC2C(C)C(OCc3ccc(C(=O)O)cc3)OC3OC4(C)CCC1C32OO4.O (stereo not drawn) [IV AL, 4-(10′ dihyro-artemisinin-oxymethyl) benzoic acid hemihydrate]
Antimalarial activity expressed as DHA equi., mean (P. falciparum clone (W2); 0.08 h, healthy rhesus): 5.69 µmol/L | Antimalarial activity expressed as DHA equi., mean (P. falciparum clone (W2); 0.08 h, infected rhesus): 7.58 µmol/L | Antimalarial activity expressed as DHA equi., mean (P. falciparum clone (W2); 0.33 h, healthy rhesus): 4.09 µmol/L | Antimalarial activity expressed as DHA equi., mean (P. falciparum clone (W2); 0.33 h, infected rhesus): 5.32 µmol/L | Antimalarial activity expressed as DHA equi., mean (P. falciparum clone (W2); 0.67 h, healthy rhesus): 2.56 µmol/L | Antimalarial activity expressed as DHA equi., mean (P. falciparum clone (W2); 0.67 h, infected rhesus): 3.58 µmol/L | Antimalarial activity expressed as DHA equi., mean (P. falciparum clone (W2); 1.0 h, healthy rhesus): 1.75 µmol/L | Antimalarial activity expressed as DHA equi., mean (P. falciparum clone (W2); 1.0 h, infected rhesus): 2.58 µmol/L | Antimalarial activity expressed as DHA equi., mean (P. falciparum clone (W2); 3.0 h, healthy rhesus): 0.07 µmol/L | Antimalarial activity expressed as DHA equi., mean (P. falciparum clone (W2); 3.0 h, infected rhesus): 0.19 µmol/L | Antimalarial activity expressed as DHA equi., mean (P. falciparum clone (W2); 6.0 h, healthy rhesus): 0 µmol/L | Antimalarial activity expressed as DHA equi., mean (P. falciparum clone (W2); 6.0 h, infected rhesus): 0 µmol/L | AUC0–20, ePD (P. falciparum clone (W2); [5]): 115 µM·min | AUC0–∞, ePD (P. falciparum clone (W2); [5]): 426 µM·min | Bioactivity %AUC20 (P. falciparum clone (W2); healthy rhesus): 31.7% | Bioactivity Cl (P. falciparum clone (W2); healthy rhesus): 4.75 L hr^-1 kg ^-1 | Bioactivity %AUC20 (P. falciparum clone (W2); infected rhesus): 27.7% | Bioactivity Cl (P. falciparum clone (W2); infected rhesus): 3.08 L hr^-1 kg ^-1 | Parasite/µL, mean (Plasmodium coatneyi; 0.29 day post-dose): 704,770 Parasite/µL | Parasite Reduction (Plasmodium coatneyi; 0.29 day post-dose, IV AL experiment (mean; IM QN = its control monkey)): 20.4% | Parasite/µL, mean (Plasmodium coatneyi; 1.00 day post-dose): 124,294 Parasite/µL | Parasite Reduction (Plasmodium coatneyi; 1.00 day post-dose, IV AL experiment): 82.2% | Parasite/µL, mean (Plasmodium coatneyi; 1.29 day post-dose): 32,703 Parasite/µL | Parasite Reduction (Plasmodium coatneyi; 1.29 day post-dose, IV AL experiment): 95.2% | Parasite/µL, mean (Plasmodium coatneyi; 2.00 day post-dose): 6,978 Parasite/µL | Parasite Reduction (Plasmodium coatneyi; 2.00 day post-dose, IV AL experiment): 98.9% | Parasite/µL, mean (Plasmodium coatneyi; 2.29 day post-dose): 3,976 Parasite/µL | Parasite Reduction (Plasmodium coatneyi; 2.29 day post-dose, IV AL experiment): 99.4% | Parasite/µL, mean (Plasmodium coatneyi; 3.00 day post-dose): 895 Parasite/µL | Parasite Reduction (Plasmodium coatneyi; 3.00 day post-dose, IV AL experiment): 99.9% | Parasite/µL, mean (Plasmodium coatneyi; 3.29 day post-dose): 377 Parasite/µL | Parasite Reduction (Plasmodium coatneyi; 3.29 day post-dose, IV AL experiment): 99.9% | Parasite/µL, mean (Plasmodium coatneyi; 4.00 day post-dose): 568 Parasite/µL | Parasite Reduction (Plasmodium coatneyi; 4.00 day post-dose, IV AL experiment): 99.9% | Parasite/µL, mean (Plasmodium coatneyi; 4.29 day post-dose): 8,704 Parasite/µL | Parasite Reduction (Plasmodium coatneyi; 4.29 day post-dose, IV AL experiment): 98.5% | Parasite/µL, mean (Plasmodium coatneyi; 5.00 day post-dose): 2,880 Parasite/µL | Parasite Reduction (Plasmodium coatneyi; 5.00 day post-dose, IV AL experiment): 99.5% | Parasite/µL, mean (Plasmodium coatneyi; 5.29 day post-dose): 1,141 Parasite/µL | Parasite Reduction (Plasmodium coatneyi; 5.29 day post-dose, IV AL experiment): 99.8% | Parasite/µL, mean (Plasmodium coatneyi; 6.00 day post-dose): 18,619 Parasite/µL | Parasite Reduction (Plasmodium coatneyi; 6.00 day post-dose, IV AL experiment): 96.8% | Parasite/µL, mean (Plasmodium coatneyi; 6.29 day post-dose): 92,458 Parasite/µL | Parasite Reduction (Plasmodium coatneyi; 6.29 day post-dose, IV AL experiment): 84.4% | Parasite/µL, mean (Plasmodium coatneyi; 7.00 day post-dose): 51,036 Parasite/µL | Parasite Reduction (Plasmodium coatneyi; 7.00 day post-dose, IV AL experiment): 91.4% | PCT of individual animals (Plasmodium coatneyi; IV AL: the only two determinable, IV AS: the two most rapid): 5.3 days and 4.0 days | Recrudescence, median (range, n) (Plasmodium coatneyi; in vivo): 6.5 (6–7, 2) days | R, Day (recrudescence day), mean (Plasmodium coatneyi; n 2 IV AL, n 10 IV AS): 6.50 days | Treatment failure (Plasmodium coatneyi; parasite counts never reached zero): Six animals failed treatment | PC50 (Plasmodium coatneyi; range in evaluable animals (4 of 8 IV AL, 3 of 10 IV AS)): 2.72 to 10.9 h | Plasma concentration, mean ([2]; 0.08 h, healthy rhesus, after IV AL 11.8 or AS 8.0 mg/kg): 61.58 µM | Plasma concentration, mean ([2]; 0.08 h, infected rhesus, after IV AL 11.8 or AS 8.0 mg/kg): 62.96 µM | Plasma concentration, mean ([2]; 0.33 h, healthy rhesus): 43.27 µM | Plasma concentration, mean ([2]; 0.33 h, infected rhesus): 46.68 µM | Plasma concentration, mean ([2]; 0.67 h, healthy rhesus): 26.12 µM | Plasma concentration, mean ([2]; 0.67 h, infected rhesus): 26.79 µM | Plasma concentration, mean ([2]; 1.0 h, healthy rhesus): 16.73 µM | Plasma concentration, mean ([2]; 1.0 h, infected rhesus): 21.04 µM | Plasma concentration, mean ([2]; 3.0 h, healthy rhesus): 0.68 µM | Plasma concentration, mean ([2]; 3.0 h, infected rhesus): 1.24 µM | Plasma concentration, mean ([2]; 6.0 h, healthy rhesus): 0 µM | Plasma concentration, mean ([2]; 6.0 h, infected rhesus): 0.05 µM | DHA in plasma after IV AL ([2]; healthy or infected monkeys): no DHA was found in plasma | AUC0–20, parent drug ([2]; infected rhesus): 925 µM·min | AUC0–∞, parent drug ([2]; infected rhesus): 3706 µM·min | Cmax ([2]; mean, P. coatneyi infected rhesus, IV AL/Lys 11.8 or AS/Na 8 mg/kg, analyte = label): 61.5 µM | %AUC20 ([2]; mean, healthy rhesus): 33.4% | AUC 0-20 ([2]; mean, healthy rhesus): 940 µmol·min/L | AUC(0-inf) ([2]; mean, healthy rhesus): 3,039 µmole min L^-1 | Cl ([2]; mean, healthy rhesus): 0.45 L hr^-1 kg ^-1 | Vz ([2]; mean, healthy rhesus): 0.26 L kg ^-1 | t 1/2, z ([2]; mean, healthy rhesus): 25.3 min | Cmax ([2]; mean, healthy rhesus, IV AL/Lys 11.8 or AS/Na 8 mg/kg): 61.6 µM | %AUC20 ([2]; mean, infected rhesus): 31.5% | AUC 0-20 ([2]; mean, infected rhesus): 954 µmol·min/L | AUC(0-inf) ([2]; mean, infected rhesus): 3,392 µmole min L^-1 | Cl ([2]; mean, infected rhesus): 0.43 L hr^-1 kg ^-1 | Vz ([2]; mean, infected rhesus): 0.28 L kg ^-1 | t 1/2, z ([2]; mean, infected rhesus): 29.6 min | Vz, parent ([2]; median, infected rhesus): 0.259 L/kg | % AUC0–20 / AUC0–∞ ([2]; parent drug, infected rhesus): 24.6% | Cmax ([2]; read-out: Cmax, parent drug, infected rhesus): 60.2 µM | Deaths [3]: two deaths in the infected animals within 2.5 h | Deaths ([3]; listed as AL): two died following AL regimen before parasite clearance | Tolerability ([3]; other animals in the experiment): well tolerated by the other animals | toxicity [4]: more toxic than AS
